# Measurements: patent US20130190299A1, “METHODS AND COMPOSITIONS FOR TREATMENT OF MULTIPLE SCLEROSIS” (Victoria Link Ltd., priority 2010, published 2013)
# What was measured:
# [1] = system: bone marrow-derived macrophages; settings: positive control; La Flamme, unpublished results; cited from earlier work
# [2] = system: bone marrow-derived macrophages; experiment: Bone marrow-derived macrophages treated in vitro with or without LPS; settings: for macrophage viability (MTT dye reduction): presence or absence of LPS
# Procedure: Identification of how risperidone alters pro-inflammatory and/or anti-inflammatory immune responses is necessary.
# Studies were conducted herein to evaluate the regulation of macrophage proinflammatory responses in vitro.
# [3] = Body weight of treated normal and immunized mice; settings: for body weight in normal mice: normal (unimmunized) mice
# prolactin = experiment: Serum prolactin in treated mice; type: in vivo; settings: for serum prolactin: immunized and unimmunized mice
# EAE [4] = experiment: EAE model in IL-4Ra-deficient BALB/c mice; type: in vivo; settings: BALB/c mice deficient in IL-4Ra
# [5] = system: auto-reactive T cell responses; experiment: Cytokine production and T cell proliferation in response to MOG antigen or ConA, cells from treated immunized mice; type: cell-based, C57BL/6 mice
# Source text: (§1) Shown are the mean and standard error of the mean (n=5 mice per group).
# as §1, §1, §1, §1, §1
# FIG. 5A illustrates exemplary antigen specific (L-17 production (pg/ml) in C57BL/6 mice, which were treated with risperidone or vehicle alone, and immunized to induce EAE 40 days earlier. Shown are the mean and standard error of the mean (n=5-10 mice per group).
# FIG. 5B illustrates exemplary antigen specific interferon y production (pg/ml) in C57BL/6 mice, which were treated with risperidone or vehicle alone, and immunized to induce EAE 40 days earlier. Shown are the mean and standard error of the mean (n=5-10 mice per group).
# FIG. 5C illustrates exemplary antigen specific IL-10 production (pg/ml) in C57BL/6 mice, which were treated with risperidone or vehicle alone, and immunized to induce EAE 40 days earlier. Shown are the mean and standard error of the mean (n=5-10 mice per group).
# FIG. 5D illustrates exemplary T cell proliferation in counts per minute in immunized and normal C57BL/6 mice, which were treated with risperidone or vehicle alone. Shown are the mean and standard error of the mean (n=5-10 mice per group).
# (§2) The effect of drug […] draining lymph node (LN) cells and splenocytes from untreated and risperidone-treated, immunized or unimmunized mice. Cytokine production in response to myelin oligodendrocyte glycoprotein antigen (MOG) can be assessed by cytokine bead assay, which measures 10 cytokines simultaneously, or ELISA, and proliferation can be measured by ^3H thymidine uptake. Cellular profiles in the spleen and lymph node cells can be determined by flow cytometric analysis and can include markers for helper T cells, T regulatory cells, and macrophages.
# cholinergic receptors = settings: cited from earlier work
# [6] = system: splenic macrophages (F4/80+ cells); experiment: Activation markers on splenic macrophages of immunized mice at peak disease (flow cytometry); type: in vivo, C57BL/6 mice; settings: risperidone 3 mg/kg/day
# Procedure: Studies were also conducted herein to evaluate the regulation of macrophage proinflammatory responses in vivo.
# EAE [7] = system: EAE
# Procedure: FIG. 1A illustrates an exemplary treatment of C57BL/6 mice with risperidone (administered in drinking water; 3 mg/kg/day) following immunization to induce EAE with MOG (myelin oligodendrocyte glycoprotein) peptide in complete Freund's adjuvant. Disease score is based on the progressive ascending paralysis that characterizes EAE in this animal model where 0=normal and 5=complete body paralysis (i.e. moribund).
# FIG. 1B illustrates an exemplary treatment of C57BL/6 mice with risperidone (administered in drinking water; 3 mg/kg/day) following immunization to induce EAE. The data is from 4 separate and independent experiments.
# AUC was measured from days 0-26 and the results are from 4 separate and independent experiments.
# In these preliminary studies risperidone was given in the drinking water at a calculated dose of 1 or 3 mg/kg/day.
# Commonly this time period is between 13-20 days post immunization with myelin oligodendrocyte glycoprotein (50 μg/mouse) in complete Freund's adjuvant and injected i.p with pertussis toxin (200 ng/mouse) on days 0 and 2. Treatment during the “chronic” stage (when disease scores remain stable) may begin 30 days post immunization with myelin oligodendrocyte glycoprotein. For all of these studies, the optimal dose of risperidone may be used as determined by the experiments described above. […] This model is well established and has the added benefit of having many different immunological reagents available for use in the C57BL/6 system.
# [8] = target: dopaminergic D2 receptors (Homo sapiens, UniProt P14416); settings: cited from earlier work
# Sequence of dopaminergic D2 receptors (P14416 whole entry): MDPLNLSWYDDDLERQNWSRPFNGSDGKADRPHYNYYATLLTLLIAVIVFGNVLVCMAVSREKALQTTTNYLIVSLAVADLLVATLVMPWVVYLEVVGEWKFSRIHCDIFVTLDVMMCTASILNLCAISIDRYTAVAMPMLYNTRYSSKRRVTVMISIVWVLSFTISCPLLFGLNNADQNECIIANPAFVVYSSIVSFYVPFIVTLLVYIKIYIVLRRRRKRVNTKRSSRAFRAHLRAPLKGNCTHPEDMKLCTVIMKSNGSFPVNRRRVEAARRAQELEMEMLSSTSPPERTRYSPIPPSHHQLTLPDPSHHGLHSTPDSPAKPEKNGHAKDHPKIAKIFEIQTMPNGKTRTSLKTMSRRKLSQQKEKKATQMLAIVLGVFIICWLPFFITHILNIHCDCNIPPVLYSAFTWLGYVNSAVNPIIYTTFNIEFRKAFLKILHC
# EAE [9] = experiment: EAE model in BALB/c mice immunized with PLP peptide
# α2-adrenergic receptors = settings: cited from earlier work
# [10] = Pajonk, 2004, cited from earlier work
# al-adrenergic receptors = settings: cited from earlier work
# microglia = experiment: Microglial reactivity by Iba-1 expression in brains of immunized mice; type: in vivo
# Procedure: FIG. 9A illustrates exemplary Iba-1 expression on microglia in the cerebellum of mice. […] Tissue samples were taken at peak disease (15 days post immunization). Shown are the scores for microglia reactivity (Iba score) and disease.
# One group (risperidone d11) was immunized but only received risperidone treatment starting at day 11 (i.e. after disease onset). Scores for Iba-1 reactivity were assessed blinded and derived from a combined score for Iba intensity (0-3) and # Iba+ foci (0-3).
# Scores for Iba-1 reactivity were assessed blinded and derived from a combined score (0-6) for Iba intensity (0-3) and number of Iba+ foci (0-3). Scores for the following brain regions were combined: cerebellum, brain stem, hippocampus, and olfactory bulb (0-24).
# Scores for Iba-1 reactivity in the cerebellum were assessed blinded and derived from a combined score (0-6) for Iba intensity (0-3) and number of Iba+ foci (0-3).
# Studies were performed to assess microglial reactivity via the expression of Iba-1 (FIG. 9A-F).
# splenocytes = experiment: Cellular profile of spleen in treated mice (flow cytometry); type: in vivo, C57BL/6 mice
# Source text: as §2, with “drug treatment on antigen-specific immune responses can be determined at 8 (pre-onset),” for “drug”
# [11] = 20 μg/ml risperidone or 10 μ/ml clozapine
# [12] = chronic stage, 40 days post immunization
# [13] = peak disease, 21 days post immunization
# [14] = 20 μg/ml risperidone or 10 μ/ml clozapine, versus vehicle-treated macrophages
# [15] = chronic stage of disease, 40 days after immunization
compound,measurement,setting,value
Glatiramer acetate,pro-inflammatory (IL-12) cytokine production by LPS-stimulated macrophages,[1],reduce
CN1CCN(C2=Nc3cc(Cl)ccc3Nc3ccccc32)CC1 [clozapine],macrophage viability (MTT dye reduction),[2]; [11],fully viable
same,body weight in normal mice,[3],promotes weight gain
same,serum prolactin,prolactin,not observed
"Cc1nc2n(c(=O)c1CCN1CCC(c3noc4cc(F)ccc34)CC1)CCCC2 [risperidone, 3-[2-[4-(6-fluoro-1,2-benzisoxazol-3-yl)-1-piperidinyl]ethyl]-6,7,8,9-tetrahydro-2-methyl-4H-pyrido[1,2-a]pyrimidin-4-one]",reduction in disease symptoms,EAE [4],do not experience a reduction in disease symptoms
same,% incidence versus vehicle,EAE [4]; 2 independent experiments,no difference in % incidence
same,production of IL-10 with polyclonal stimulus (ConA),[5]; 21 days post immunization,no alteration
same,production of INF-γ with polyclonal stimulus (ConA),[5]; 21 days post immunization,no alteration
same,MOG specific IFN-γ production,[5]; [12],enhance
same,MOG-specific IL-10 production,[5]; [12],no effect
same,MOG-specific IL-17 production,[5]; [12],no effect
same,MOG-specific proliferation,[5]; [12],no effect
same,production of IFN-γ in response to MOG antigen,[5]; [13],does not alter
same,production of IL-10 in response to MOG antigen,[5]; [13],significantly reduce
same,production of IL-17 in response to MOG antigen,[5]; [13],significantly reduce
same,affinity for cholinergic receptors,cholinergic receptors,no affinity
same,CD40 expression on splenic macrophages,[6],reduced CD40 expression
same,number of CD40-expressing splenic macrophages,[6],not reduced
same,MHC class II expression on splenic macrophages,"[6]; clozapine 30 mg/kg/day, versus vehicle-treated immunized mice",reduced MHC class II expression
same,protective effect in dose-response,"EAE [7]; 3 mg/kg/day, p<0.0001 by 2-way ANOVA",significant protective effect
same,"area under the curve (AUC), total disease burden","EAE [7]; AUC of disease score, risperidone days 0-26, 4 independent experiments",reduction
same,average disease score during the chronic stage,EAE [7]; drinking water from one day before immunization,stable reduction
same,detrimental effects on the mice,"EAE [7]; risperidone 1 or 3 mg/kg/day, immunized or unimmunized mice, aside from slight weight gain",no detrimental effects
same,efficacy of higher versus lower dose,"EAE [7]; risperidone 3 vs 1 mg/kg/day, clozapine 30 vs 15 mg/kg/day",3 mg/kg/day is more effective
same,time of onset or incidence of EAE,EAE [7]; risperidone daily from the time of immunization,does not alter
same,affinity for dopaminergic D2 receptors,[8],high affinity
same,macrophage viability (MTT dye reduction),[2]; [11],fully viable
same,IL-12 production in response to LPS,[2]; [14],produce less
same,NO production in response to LPS,[2]; [14],produce less
same,IL-10 production in response to LPS,"[2]; risperidone 20 μg/ml, versus vehicle-treated macrophages",produce more
same,% incidence,"EAE [9]; 2 independent experiments, same for vehicle group",73%
same,disease severity,"EAE [9]; oral, from one day before immunization with PLP",significantly reduced disease severity
same,affinity for α2-adrenergic receptors,α2-adrenergic receptors,lower affinity
same,maximum tolerated dose in mice,[10],unable to identify a maximum tolerated dose
same,toxicity,[10]; mice treated daily with doses up to 10 mg/kg/day for 18 months,no toxicity
same,weight loss associated with EAE,[3]; mice immunized with MOG peptide,reduce the weight loss
same,body weight in normal mice,[3],promotes weight gain
same,binding to al-adrenergic receptors,al-adrenergic receptors,binds
same,microglial reactivity (Iba-1 expression),"microglia; immunized mice, peak disease (15 days post immunization), cerebellum, brain stem, hippocampus, olfactory bulb",greatly reduced
same,"microglial reactivity (Iba-1 expression), treatment after disease onset","microglia; treatment starting at day 11 post-immunization, assessed on day 15",reduces microglial reactivity
same,number of helper T cells (CD4+CD25−) in the spleen,splenocytes; [15],does not alter
same,number of neutrophils (Gr1+ cells) in the spleen,splenocytes; [15],reduce
same,number of regulatory T cells (CD4+CD25+ Treg) in the spleen,splenocytes; [15],enhance
same,overall immune cells in the spleen (total splenocyte numbers),"splenocytes; peak disease (day 21), risperidone 3 mg/kg/day, clozapine 30 mg/kg/day, unimmunized and immunized mice",does not result in overall loss
same,serum prolactin (hyperprolactinemia),prolactin; BALB/c mice,develop hyperprolactinemia
same,serum/plasma prolactin (hyperprolactinemia),prolactin; IL-4Ra-deficient BALB/c mice,develop hyperprolactinemia
same,serum prolactin,prolactin,high levels of serum prolactin
